Patent US20250255867A1 (Kadmon Corporation, LLC, priority 2022, published 2025)

Details: Cohort 2 200 mg BID

## CC(C)NC(=O)COc1cccc(-c2nc(Nc3ccc4[nH]ncc4c3)c3ccccc3n2)c1 [Belumosudil, 2-{3-[4-(1H-indazol-5-ylamino)-2-quinazolinyl]phenoxy}-N-(propan-2-yl) acetamide]
  Oedema: # Events: 1
  Oedema: Affected/At Risk: 1/16
  Oedema: Affected/At Risk (%): (6.25%)
  Oesophageal ulcer: # Events: 1
  Oesophageal ulcer: Affected/At Risk: 1/16
  Oesophageal ulcer: Affected/At Risk (%): (6.25%)
  Oral candidiasis: # Events: 1
  Oral candidiasis: Affected/At Risk: 1/16
  Oral candidiasis: Affected/At Risk (%): (6.25%)
  Oropharyngeal pain: # Events: 0
  Oropharyngeal pain: Affected/At Risk: 0/16
  Oropharyngeal pain: Affected/At Risk (%): (0%)
  Orthopnoea: # Events: 0
  Orthopnoea: Affected/At Risk: 0/16
  Orthopnoea: Affected/At Risk (%): (0%)
  Osteonecrosis: # Events: 0
  Osteonecrosis: Affected/At Risk: 0/16
  Osteonecrosis: Affected/At Risk (%): (0%)
  Osteopenia: # Events: 1
  Osteopenia: Affected/At Risk: 1/16
  Osteopenia: Affected/At Risk (%): (6.25%)
  Osteoporosis: # Events: 1
  Osteoporosis: Affected/At Risk: 1/16
  Osteoporosis: Affected/At Risk (%): (6.25%)
  Overdose: # Events: 0
  Overdose: Affected/At Risk: 0/16
  Overdose: Affected/At Risk (%): (0%)
  Pain in extremity: # Events: 3
  Pain in extremity: Affected/At Risk: 2/16
  Pain in extremity: Affected/At Risk (%): (12.5%)
  Pain: # Events: 0
  Pain: Affected/At Risk: 0/16
  Pain: Affected/At Risk (%): (0%)
  Palpitations: # Events: 0
  Palpitations: Affected/At Risk: 0/16
  Palpitations: Affected/At Risk (%): (0%)
  Paraesthesia: # Events: 1
  Paraesthesia: Affected/At Risk: 1/16
  Paraesthesia: Affected/At Risk (%): (6.25%)
  Participants with TEAE: 16 (100%) participants
  Participants with TESAE: 6 (38%) participants
  Pericardial effusion: # Events: 0
  Pericardial effusion: Affected/At Risk: 0/16
  Pericardial effusion: Affected/At Risk (%): (0%)
  Peripheral coldness: # Events: 0
  Peripheral coldness: Affected/At Risk: 0/16
  Peripheral coldness: Affected/At Risk (%): (0%)
  Peripheral sensory neuropathy: # Events: 1
  Peripheral sensory neuropathy: Affected/At Risk: 1/16
  Peripheral sensory neuropathy: Affected/At Risk (%): (6.25%)
  Phlebitis: # Events: 1
  Phlebitis: Affected/At Risk: 1/16
  Phlebitis: Affected/At Risk (%): (6.25%)
  Photophobia: # Events: 1
  Photophobia: Affected/At Risk: 1/16
  Photophobia: Affected/At Risk (%): (6.25%)
  Platelet count decreased: # Events: 0
  Platelet count decreased: Affected/At Risk: 0/16
  Platelet count decreased: Affected/At Risk (%): (0%)
  Pleural effusion: # Events: 0
  Pleural effusion: Affected/At Risk: 0/16
  Pleural effusion: Affected/At Risk (%): (0%)
  Pneumonia respiratory syncytial viral: # Events: 1
  Pneumonia respiratory syncytial viral: Affected/At Risk: 1/16
  Pneumonia respiratory syncytial viral: Affected/At Risk (%): (6.25%)
  Pneumonia: # Events: 3
  Pneumonia: Affected/At Risk: 3/16
  Pneumonia: Affected/At Risk (%): (18.75%)
  Pollakiuria: # Events: 0
  Pollakiuria: Affected/At Risk: 0/16
  Pollakiuria: Affected/At Risk (%): (0%)
  Presyncope: # Events: 3
  Presyncope: Affected/At Risk: 3/16
  Presyncope: Affected/At Risk (%): (18.75%)
  Productive cough: # Events: 7
  Productive cough: Affected/At Risk: 2/16
  Productive cough: Affected/At Risk (%): (12.5%)
  Proteinuria: # Events: 1
  Proteinuria: Affected/At Risk: 1/16
  Proteinuria: Affected/At Risk (%): (6.25%)
  Pruritus: # Events: 4
  Pruritus: Affected/At Risk: 2/16
  Pruritus: Affected/At Risk (%): (12.5%)
  Pseudomonas infection: # Events: 2
  Pseudomonas infection: Affected/At Risk: 1/16
  Pseudomonas infection: Affected/At Risk (%): (6.25%)
  Pulmonary mass: # Events: 1
  Pulmonary mass: Affected/At Risk: 1/16
  Pulmonary mass: Affected/At Risk (%): (6.25%)
  Pyrexia: # Events: 6
  Pyrexia: Affected/At Risk: 3/16
  Pyrexia: Affected/At Risk (%): (18.75%)
  Rash erythematous: # Events: 1
  Rash erythematous: Affected/At Risk: 1/16
  Rash erythematous: Affected/At Risk (%): (6.25%)
  Rash maculo-papular: # Events: 0
  Rash maculo-papular: Affected/At Risk: 0/16
  Rash maculo-papular: Affected/At Risk (%): (0%)
  Rash pustular: # Events: 1
  Rash pustular: Affected/At Risk: 1/16
  Rash pustular: Affected/At Risk (%): (6.25%)
  Rash: # Events: 1
  Rash: Affected/At Risk: 1/16
  Rash: Affected/At Risk (%): (6.25%)
  Red blood cells urine positive: # Events: 1
  Red blood cells urine positive: Affected/At Risk: 1/16
  Red blood cells urine positive: Affected/At Risk (%): (6.25%)
  Renal failure: # Events: 1
  Renal failure: Affected/At Risk: 1/16
  Renal failure: Affected/At Risk (%): (6.25%)
  Respiratory syncytial virus infection: # Events: 1
  Respiratory syncytial virus infection: Affected/At Risk: 1/16
  Respiratory syncytial virus infection: Affected/At Risk (%): (6.25%)
  Respiratory tract infection fungal: # Events: 0
  Respiratory tract infection fungal: Affected/At Risk: 0/16
  Respiratory tract infection fungal: Affected/At Risk (%): (0%)
  Respiratory tract infection: # Events: 0
  Respiratory tract infection: Affected/At Risk: 0/16
  Respiratory tract infection: Affected/At Risk (%): (0%)
  Restless legs syndrome: # Events: 1
  Restless legs syndrome: Affected/At Risk: 1/16
  Restless legs syndrome: Affected/At Risk (%): (6.25%)
  Rosacea: # Events: 1
  Rosacea: Affected/At Risk: 1/16
  Rosacea: Affected/At Risk (%): (6.25%)
  SAE Abdominal wall haematoma, # events: 0
  SAE Abdominal wall haematoma, affected/at risk: 0/16
  SAE Acute kidney injury, # events: 1
  SAE Acute kidney injury, affected/at risk: 1/16
  SAE Acute lymphocytic leukaemia recurrent, # events: 0
  SAE Acute lymphocytic leukaemia recurrent, affected/at risk: 0/16
  SAE Acute respiratory failure, # events: 0
  SAE Acute respiratory failure, affected/at risk: 0/16
  SAE Anaphylactic reaction, # events: 0
  SAE Anaphylactic reaction, affected/at risk: 0/16
  SAE Bacteraemia, # events: 1
  SAE Bacteraemia, affected/at risk: 1/16
  SAE Cardiac arrest, # events: 0
  SAE Cardiac arrest, affected/at risk: 0/16
  SAE Cellulitis, # events: 1
  SAE Cellulitis, affected/at risk: 1/16
  SAE Chronic graft versus host disease in skin, # events: 1
  SAE Chronic graft versus host disease in skin, affected/at risk: 1/16
  SAE Citrobacter infection, # events: 1
  SAE Citrobacter infection, affected/at risk: 1/16
  SAE Dyspnoea, # events: 1
  SAE Dyspnoea, affected/at risk: 1/16
  SAE Embolism, # events: 1
  SAE Embolism, affected/at risk: 1/16
  SAE Febrile neutropenia, # events: 0
  SAE Febrile neutropenia, affected/at risk: 0/16
  SAE Graft versus host disease in lung, # events: 0
  SAE Graft versus host disease in lung, affected/at risk: 0/16
  SAE Hypoxia, # events: 0
  SAE Hypoxia, affected/at risk: 0/16
  SAE Influenza A virus test positive, # events: 0
  SAE Influenza A virus test positive, affected/at risk: 0/16
  SAE Influenza like illness, # events: 0
  SAE Influenza like illness, affected/at risk: 0/16
  SAE Lacunar infarction, # events: 1
  SAE Lacunar infarction, affected/at risk: 1/16
  SAE Leukaemia recurrent, # events: 0
  SAE Leukaemia recurrent, affected/at risk: 0/16
  SAE Lipomatosis, # events: 0
  SAE Lipomatosis, affected/at risk: 0/16
  SAE Metastases to meninges, # events: 0
  SAE Metastases to meninges, affected/at risk: 0/16
  SAE Muscular weakness, # events: 1
  SAE Muscular weakness, affected/at risk: 1/16
  SAE Myelodysplastic syndrome, # events: 0
  SAE Myelodysplastic syndrome, affected/at risk: 0/16
  SAE Non-cardiac chest pain, # events: 2
  SAE Non-cardiac chest pain, affected/at risk: 1/16
  SAE Obliterative bronchiolitis, # events: 0
  SAE Obliterative bronchiolitis, affected/at risk: 0/16
  SAE Pericardial effusion, # events: 0
  SAE Pericardial effusion, affected/at risk: 0/16
  SAE Pleural effusion, # events: 0
  SAE Pleural effusion, affected/at risk: 0/16
  SAE Pneumonia viral, # events: 0
  SAE Pneumonia viral, affected/at risk: 0/16
  SAE Pneumonia, # events: 1
  SAE Pneumonia, affected/at risk: 1/16
  SAE Pregnancy of partner, # events: 0
  SAE Pregnancy of partner, affected/at risk: 0/16
  SAE Proteinuria, # events: 0
  SAE Proteinuria, affected/at risk: 0/16
  SAE Respirovirus test positive, # events: 1
  SAE Respirovirus test positive, affected/at risk: 1/16
  SAE Small intestinal obstruction, # events: 0
  SAE Small intestinal obstruction, affected/at risk: 0/16
  SAE Stenotrophomonas infection, # events: 1
  SAE Stenotrophomonas infection, affected/at risk: 1/16
  SAE Urinary retention, # events: 0
  SAE Urinary retention, affected/at risk: 0/16
  SAE Urinary tract infection, # events: 1
  SAE Urinary tract infection, affected/at risk: 1/16
  SAE Varicella zoster virus infection, # events: 0
  SAE Varicella zoster virus infection, affected/at risk: 0/16
  SAE total, affected/at risk: 6/16
  Sinus pain: # Events: 0
  Sinus pain: Affected/At Risk: 0/16
  Sinus pain: Affected/At Risk (%): (0%)
  Sinusitis: # Events: 4
  Sinusitis: Affected/At Risk: 2/16
  Sinusitis: Affected/At Risk (%): (12.5%)
  Skin abrasion: # Events: 0
  Skin abrasion: Affected/At Risk: 0/16
  Skin abrasion: Affected/At Risk (%): (0%)
  Skin lesion: # Events: 1
  Skin lesion: Affected/At Risk: 1/16
  Skin lesion: Affected/At Risk (%): (6.25%)
  Skin papilloma: # Events: 0
  Skin papilloma: Affected/At Risk: 0/16
  Skin papilloma: Affected/At Risk (%): (0%)
  Spinal compression fracture: # Events: 0
  Spinal compression fracture: Affected/At Risk: 0/16
  Spinal compression fracture: Affected/At Risk (%): (0%)
  Squamous cell carcinoma of skin: # Events: 2
  Squamous cell carcinoma of skin: Affected/At Risk: 2/16
  Squamous cell carcinoma of skin: Affected/At Risk (%): (12.5%)
  Stomatitis: # Events: 1
  Stomatitis: Affected/At Risk: 1/16
  Stomatitis: Affected/At Risk (%): (6.25%)
  Superior vena cava syndrome: # Events: 2
  Superior vena cava syndrome: Affected/At Risk: 1/16
  Superior vena cava syndrome: Affected/At Risk (%): (6.25%)
  Tachycardia: # Events: 0
  Tachycardia: Affected/At Risk: 0/16
  Tachycardia: Affected/At Risk (%): (0%)
  Tendonitis: # Events: 1
  Tendonitis: Affected/At Risk: 1/16
  Tendonitis: Affected/At Risk (%): (6.25%)
  Testicular pain: # Events: 0
  Testicular pain: Affected/At Risk: 0/16
  Testicular pain: Affected/At Risk (%): (0%)
  Testicular swelling: # Events: 0
  Testicular swelling: Affected/At Risk: 0/16
  Testicular swelling: Affected/At Risk (%): (0%)
  Thoracic spinal stenosis: # Events: 0
  Thoracic spinal stenosis: Affected/At Risk: 0/16
  Thoracic spinal stenosis: Affected/At Risk (%): (0%)
  Thrombocytopenia: # Events: 1
  Thrombocytopenia: Affected/At Risk: 1/16
  Thrombocytopenia: Affected/At Risk (%): (6.25%)
  Thrombocytosis: # Events: 0
  Thrombocytosis: Affected/At Risk: 0/16
  Thrombocytosis: Affected/At Risk (%): (0%)
  Tinea pedis: # Events: 1
  Tinea pedis: Affected/At Risk: 1/16
  Tinea pedis: Affected/At Risk (%): (6.25%)
  Tooth fracture: # Events: 1
  Tooth fracture: Affected/At Risk: 1/16
  Tooth fracture: Affected/At Risk (%): (6.25%)
  Total Other Adverse Events: Affected/At Risk: 16/16
  Total Other Adverse Events: Affected/At Risk (%): (100%)
  Transfusion reaction: # Events: 0
  Transfusion reaction: Affected/At Risk: 0/16
  Transfusion reaction: Affected/At Risk (%): (0%)
  Tremor: # Events: 2
  Tremor: Affected/At Risk: 1/16
  Tremor: Affected/At Risk (%): (6.25%)
  Type 2 diabetes mellitus: # Events: 0
  Type 2 diabetes mellitus: Affected/At Risk: 0/16
  Type 2 diabetes mellitus: Affected/At Risk (%): (0%)
  Ulcerative keratitis: # Events: 1
  Ulcerative keratitis: Affected/At Risk: 1/16
  Ulcerative keratitis: Affected/At Risk (%): (6.25%)
  Upper respiratory tract infection: # Events: 13
  Upper respiratory tract infection: Affected/At Risk: 9/16
  Upper respiratory tract infection: Affected/At Risk (%): (56.25%)
  Upper-airway cough syndrome: # Events: 2
  Upper-airway cough syndrome: Affected/At Risk: 2/16
  Upper-airway cough syndrome: Affected/At Risk (%): (12.5%)
